In PubChem BioAssay AID266 (DTP/NCI, 2004):
Values joined by “and” are separate entries in the source; they are usually repeats but may differ in a detail not shown here. Equal values may be shown once. Inconclusive results are not listed.

Test system: Nude mice, LX-1 lung xenograft intrarenal, tumor weight T/C
Assay: NCI In Vivo Anticancer Drug Screen. Data for tumor model Human Lung LX-1 Xenograft (intrarenal inoculation) in NU/NU BALB/C (nude) mice
Conditions: endpoint: mean tumor weight change, higher = larger tumour
Protocol: The antitumor activity of compounds was measured in mice bearing transplantable tumors. Survival or tumor size were measured and the results are expressed as the measurement made in the treated group (T) divided by the measurement made in the vehicle treated control group (C). The tumor model used in this assay is Human Lung LX-1 Xenograft (intrarenal inoculation) in NU/NU BALB/C (nude) mice

[1] = dose: 300.0 mg/kg/injection, schedule: Q04DX003 (sc), vehicle: Klucel (hydroxypropylcellulose) (HPC)
[2] = dose: 600.0 mg/kg/injection, schedule: Q04DX003 (sc), vehicle: Klucel (hydroxypropylcellulose) (HPC)
[3] = dose: 50.0 mg/kg/injection, schedule: Q01DX010 (sc), vehicle: saline
[4] = dose: 100.0 mg/kg/injection, schedule: Q01DX010 (sc), vehicle: saline with Tween-80
[5] = dose: 200.0 mg/kg/injection, schedule: Q01DX010 (sc), vehicle: saline with Tween-80
[6] = dose: 150.0 mg/kg/injection, schedule: Q04DX003 (ip), vehicle: DMSO
[7] = dose: 300.0 mg/kg/injection, schedule: Q04DX003 (ip), vehicle: DMSO
[8] = dose: 600.0 mg/kg/injection, schedule: Q04DX003 (ip), vehicle: DMSO
[9] = dose: 18.75 mg/kg/injection, schedule: Q04DX003 (sc), vehicle: Klucel (hydroxypropylcellulose) (HPC)
[10] = dose: 37.5 mg/kg/injection, schedule: Q04DX003 (sc), vehicle: Klucel (hydroxypropylcellulose) (HPC)
[11] = dose: 75.0 mg/kg/injection, schedule: Q04DX003 (sc), vehicle: Klucel (hydroxypropylcellulose) (HPC)
[12] = dose: 200.0 mg/kg/injection, schedule: Q04DX003 (sc), vehicle: Klucel (hydroxypropylcellulose) (HPC)
[13] = dose: 400.0 mg/kg/injection, schedule: Q04DX003 (sc), vehicle: Klucel (hydroxypropylcellulose) (HPC)
[14] = dose: 300.0 mg/kg/injection, schedule: Q04DX003 (sc), vehicle: saline with Tween-80
[15] = dose: 600.0 mg/kg/injection, schedule: Q04DX003 (sc), vehicle: saline with Tween-80
[16] = dose: 1200.0 mg/kg/injection, schedule: Q04DX003 (sc), vehicle: saline with Tween-80
[17] = dose: 2400.0 mg/kg/injection, schedule: Q04DX003 (sc), vehicle: saline with Tween-80
[18] = dose: 150.0 mg/kg/injection, schedule: Q04DX003 (sc), vehicle: saline with Tween-80

## O=Cc1ccc(C=O)c(Cl)c1
[1]
  T/C: 81 % of control
[2]
  T/C: 88 % of control
dose: 1200.0 mg/kg/injection, schedule: Q04DX003 (sc), vehicle: Klucel (hydroxypropylcellulose) (HPC)
  T/C: 79 % of control
dose: 2400.0 mg/kg/injection, schedule: Q04DX003 (sc), vehicle: Klucel (hydroxypropylcellulose) (HPC)
  T/C: 152 % of control

## CN(C)CCC(=O)C(=Cc1ccc(O)cc1)C(=O)CCN(C)C
dose: 75.0 mg/kg/injection, schedule: Q04DX003 (ip), vehicle: saline
  T/C: 95 % of control
dose: 150.0 mg/kg/injection, schedule: Q04DX003 (ip), vehicle: saline
  T/C: 116 % of control

## C[C@]12C=CC(=O)C=C1CC[C@@H]1[C@@H]2[C@@H](O)C[C@@]2(C)[C@H]1CC[C@]2(O)C(=O)CO
dose: 50.0 mg/kg/injection, schedule: Q01DX010 (sc), vehicle: Klucel (hydroxypropylcellulose) (HPC)
  T/C: 63 % of control

## CN(CO)c1nc(N(C)CO)nc(N(C)CO)n1
dose: 6.25 mg/kg/injection, schedule: Q01DX010 (sc), vehicle: saline
  T/C: 71 % of control
dose: 25.0 mg/kg/injection, schedule: Q01DX010 (sc), vehicle: saline
  T/C: 100 % of control
[3]
  T/C: 122 % of control

## Cc1ccc(S(=O)(=O)NC(=S)S)cc1
[4]
  T/C: 203 % of control
[5]
  T/C: 111 % of control
dose: 400.0 mg/kg/injection, schedule: Q01DX010 (sc), vehicle: saline with Tween-80
  T/C: 196 % of control

## O=C(O)[C@H](Cc1ccccc1)N1C(=O)c2ccccc2C1=O
[6]
  T/C: 98 % of control
[7]
  T/C: 58 % of control
[8]
  T/C: 53 % of control

## COc1c(C=O)c2c(c(OC)c1OC)-c1ccc(OC)c(=O)cc1[C@@H](NC(C)=O)CC2
[9]
  T/C: 83 % of control
[10]
  T/C: 59 % of control
[11]
  T/C: 32 % of control

## O=C(O)C1(NO)CCCCC1
[12]
  T/C: 81 % of control
[13]
  T/C: 85 % of control
dose: 800.0 mg/kg/injection, schedule: Q04DX003 (sc), vehicle: Klucel (hydroxypropylcellulose) (HPC)
  T/C: 81 % of control
dose: 1600.0 mg/kg/injection, schedule: Q04DX003 (sc), vehicle: Klucel (hydroxypropylcellulose) (HPC)
  T/C: 77 % of control

## CCCCCCCCCCCCCCCCCCOCC(COP(=O)([O-])OCC[N+](C)(C)C)OC (centres undefined)
dose: 37.5 mg/kg/injection, schedule: Q04DX003 (sc), vehicle: saline
  T/C: 68 % of control

## CCS/C(SC)=C(/c1ccccc1)[P+](c1ccccc1)(c1ccccc1)c1ccccc1
dose: 9.38 mg/kg/injection, schedule: Q04DX003 (sc), vehicle: Klucel (hydroxypropylcellulose) (HPC)
  T/C: 79 % of control
[9]
  T/C: 76 % of control
[10]
  T/C: 110 % of control

## O=P1(N(CCCl)CCCl)NCCCO1 (centres undefined)
dose: 25.0 mg/kg/injection, schedule: Q04DX003 (ip), vehicle: saline
  T/C: 101 % of control
dose: 50.0 mg/kg/injection, schedule: Q04DX003 (ip), vehicle: saline
  T/C: 92 % of control
dose: 100.0 mg/kg/injection, schedule: Q04DX003 (ip), vehicle: saline
  T/C: 77 % of control
dose: 200.0 mg/kg/injection, schedule: Q04DX003 (ip), vehicle: saline
  T/C: 50 % of control

## CCN(CC)CCNc1ccc(C)c2sc3ccccc3c(=O)c12
[3]
  T/C: 211 % of control

## Nc1nc(N)c(N=O)c(Nc2ccc(Br)cc2)n1
[14]
  T/C: 124 % of control
[15]
  T/C: 95 % of control
[16]
  T/C: 229 % of control
[17]
  T/C: 93 % of control

## COc1cc(C(C)(C)C)cc(OC)c1C(O)(c1c(OC)cc(C(C)(C)C)cc1OC)c1c(OC)cc(C(C)(C)C)cc1OC
[14]
  T/C: 60 % of control
[15]
  T/C: 54 % of control
[16]
  T/C: 54 % of control
[17]
  T/C: 73 % of control

## O=NN(CCCl)C(=O)NCCCl
dose: 4.0 mg/kg/injection, schedule: Q01DX010 (ip), vehicle: saline
  T/C: 32 % of control and 48 % of control
dose: 13.33 mg/kg/injection, schedule: Q04DX003 (ip), vehicle: saline
  T/C: 9 % of control and 10 % of control
dose: 16.0 mg/kg/injection, schedule: Q01DX010 (ip), vehicle: saline
  T/C: -69 % of control and -87 % of control
dose: 26.66 mg/kg/injection, schedule: Q04DX003 (ip), vehicle: saline
  T/C: -21 % of control

## COc1cccc2c1C(=O)c1c(O)c3c(c(O)c1C2=O)CC(O)(C(=O)CO)CC3OC1CC(N)C(O)C(C)O1 (centres undefined)
dose: 50.0 mg/kg/injection, schedule: Q04DX003 (sc), vehicle: water
  T/C: 86 % of control
dose: 100.0 mg/kg/injection, schedule: Q04DX003 (sc), vehicle: water
  T/C: 103 % of control
dose: 200.0 mg/kg/injection, schedule: Q04DX003 (sc), vehicle: water
  T/C: 90 % of control
dose: 400.0 mg/kg/injection, schedule: Q04DX003 (sc), vehicle: water
  T/C: 103 % of control

## O=C1NC(=O)NC(C(=O)O)N1
dose: 100.0 mg/kg/injection, schedule: Q04DX003 (sc), vehicle: Klucel (hydroxypropylcellulose) (HPC)
  T/C: 87 % of control
[12]
  T/C: 98 % of control
[13]
  T/C: 106 % of control

## O=C1N=C(Oc2ccccc2)SC1=O
dose: 100.0 mg/kg/injection, schedule: Q04DX003 (sc), vehicle: saline with Tween-80
  T/C: 87 % of control
dose: 200.0 mg/kg/injection, schedule: Q04DX003 (sc), vehicle: saline with Tween-80
  T/C: 93 % of control
dose: 400.0 mg/kg/injection, schedule: Q04DX003 (sc), vehicle: saline with Tween-80
  T/C: 54 % of control

## CCOC1=Cc2c(oc3c(C(C)(C)C)cc(OCC)cc23)OC(C(C)(C)C)=C1
[18]
  T/C: 92 % of control
[14]
  T/C: 101 % of control
[15]
  T/C: 102 % of control

## CC(=O)N(C)O
[18]
  T/C: 92 % of control

## C=COC(=O)C(Cc1ccccc1)NC(=O)OCc1ccccc1 (centres undefined)
[14]
  T/C: 114 % of control
[15]
  T/C: 118 % of control
[16]
  T/C: 104 % of control

## COc1ccc2cc1Oc1ccc(cc1)C[C@H]1c3cc(c(OC)cc3CCN1C)Oc1c(OC)c(OC)cc3c1[C@H](C2)N(C)CC3
[4]
  T/C: 110 % of control
[5]
  T/C: 122 % of control

## NC(CCl)=NCC12CC3CC(CC(C3)C1)C2
[9]
  T/C: 157 % of control
[11]
  T/C: 110 % of control

## O=CNCO
dose: 250.0 mg/kg/injection, schedule: Q01DX010 (sc), vehicle: water
  T/C: 72 % of control
dose: 500.0 mg/kg/injection, schedule: Q01DX010 (sc), vehicle: water
  T/C: 87 % of control
dose: 1000.0 mg/kg/injection, schedule: Q01DX010 (sc), vehicle: water
  T/C: 100 % of control
dose: 2000.0 mg/kg/injection, schedule: Q01DX010 (sc), vehicle: water
  T/C: 80 % of control

## CCCCCCCCCCC(OC(C)=O)C1CCC(C2CCC(C(O)CCCCCCCCCCCCC3C=C(C)OC3=O)O2)O1 (centres undefined)
dose: 5.0 mg/kg/injection, schedule: Q04DX003 (sc), vehicle: water
  T/C: 93 % of control
dose: 10.0 mg/kg/injection, schedule: Q04DX003 (sc), vehicle: water
  T/C: 114 % of control
dose: 20.0 mg/kg/injection, schedule: Q04DX003 (sc), vehicle: water
  T/C: 108 % of control
dose: 40.0 mg/kg/injection, schedule: Q04DX003 (sc), vehicle: water
  T/C: 110 % of control

## Nc1ccc(S(=O)(=O)Nc2cnc3c(Cl)cccc3n2)cc1
[6]
  T/C: 82 % of control
[7]
  T/C: 89 % of control
[8]
  T/C: 45 % of control

## COc1ccc2c(ccc3oc([N+](=O)[O-])cc32)c1
dose: 150.0 mg/kg/injection, schedule: Q04DX003 (sc), vehicle: Klucel (hydroxypropylcellulose) (HPC)
  T/C: 88 % of control
[1]
  T/C: 96 % of control
[2]
  T/C: 86 % of control
